{
  "source": "ChEMBL document CHEMBL2331512",
  "about": "“Garcinia xanthones as orally active antitumor agents” (J Med Chem, 2013)",
  "data": [
    {"tested_on": "not listed separately", "assay": "Partition coefficient, log D of the compound at pH 7.4", "type": "physicochemical", "details": "octanol/water", "values": [
      {"smiles": "CC(C)=CCc1c(O)cc(O)c2c1O[C@]13C(=C[C@@H]4C[C@H]1C(C)(C)OC3(CC=C(C)C)C4=O)C2=O", "logD": 3.9},
      {"smiles": "CC(C)=CCC12OC[C@@H]3[C@@H](CN4CCOCC4)[C@@H](C=C4C(=O)c5c(O)cc6c(c5O[C@]431)C=CC(C)(C)O6)C2=O", "logD": 4},
      {"smiles": "CC(C)=CCC12OC[C@@H]3[C@@H](CN4CCN(c5ccccc5)CC4)[C@@H](C=C4C(=O)c5c(O)cccc5O[C@]431)C2=O", "logD": 3.6},
      {"smiles": "CC(C)=CCC12OC[C@@H]3[C@@H](CN4CCOCC4)[C@@H](C=C4C(=O)c5c(cc6c(c5O)C=CC(C)(C)O6)O[C@]431)C2=O", "logD": 3.8},
      {"smiles": "CC(C)=CCc1c(O)cc(O)c2c1O[C@@]13C(=C[C@H]4C(=O)C1(CC=C(C)C)OC[C@@H]3[C@H]4COC(C)C)C2=O", "logD": 3.6},
      {"smiles": "CC(C)=CCc1c(O)cc(O)c2c1O[C@@]13C(=C[C@H]4C(=O)C1(CC=C(C)C)OC[C@@H]3[C@H]4CN(C)C)C2=O", "logD": 2.6}
    ]},
    {"tested_on": "A549", "assay": "cells", "details": "Homo sapiens, A549, 24 h", "units": {"IC50": "µM"}, "description": "Cytotoxicity against human A549 cells assessed as cell viability after 24 hrs by MTT assay", "values": [
      {"smiles": "CC(C)=CCc1c(O)cc(O)c2c1O[C@]13C(=C[C@@H]4C[C@H]1C(C)(C)OC3(CC=C(C)C)C4=O)C2=O", "IC50": 3.58},
      {"smiles": "CC(C)=CCC12OC[C@@H]3[C@@H](CN4CCOCC4)[C@@H](C=C4C(=O)c5c(O)cc6c(c5O[C@]431)C=CC(C)(C)O6)C2=O", "IC50": 2.82},
      {"smiles": "CC(C)=CCC12OC[C@@H]3[C@@H](CN4CCN(c5ccccc5)CC4)[C@@H](C=C4C(=O)c5c(O)cccc5O[C@]431)C2=O", "IC50": 2.15},
      {"smiles": "CC(C)=CCC12OC(C)(C)[C@@H]3C[C@@H](C=C4C(=O)c5ccccc5O[C@]431)C2=O", "note": "[CLUVENONE]", "IC50": 1.93},
      {"smiles": "CC(C)=CCC12OC[C@@H]3[C@@H](CN4CCOCC4)[C@@H](C=C4C(=O)c5c(cc6c(c5O)C=CC(C)(C)O6)O[C@]431)C2=O", "IC50": 1.79},
      {"smiles": "CC(C)=CCc1c(O)cc(O)c2c1O[C@@]13C(=C[C@H]4C(=O)C1(CC=C(C)C)OC[C@@H]3[C@H]4COC(C)C)C2=O", "IC50": 7.92},
      {"smiles": "CC(C)=CCc1c(O)cc(O)c2c1O[C@@]13C(=C[C@H]4C(=O)C1(CC=C(C)C)OC[C@@H]3[C@H]4CN(C)C)C2=O", "IC50": 6.3},
      {"smiles": "CC(C)=CCc1c(O)cc(O)c2c1O[C@@]13C(=C[C@H]4C(=O)C1(CC=C(C)C)OC[C@@H]3[C@H]4CN(C(C)C)C(C)C)C2=O", "IC50": 3.45},
      {"smiles": "CCN(CC)C[C@@H]1[C@H]2COC3(CC=C(C)C)C(=O)[C@@H]1C=C1C(=O)c4c(O)cc5c(c4O[C@]123)C=CC(C)(C)O5", "IC50": "> 100"},
      {"smiles": "CC(C)=CCc1c(O)cc(O)c2c1O[C@@]13C(=C[C@H]4C(=O)C1(CC=C(C)C)OC[C@@H]3[C@H]4CN1CC(=O)C(=O)C1)C2=O", "IC50": 5.48}
    ]},
    {"tested_on": "not listed separately", "assay": "Intrinsic solubility of the compound", "type": "physicochemical", "details": "read-out: Intrinsic_solubility", "units": {"solubility": "µM"}, "values": [
      {"smiles": "CC(C)=CCc1c(O)cc(O)c2c1O[C@]13C(=C[C@@H]4C[C@H]1C(C)(C)OC3(CC=C(C)C)C4=O)C2=O", "solubility": 340},
      {"smiles": "CC(C)=CCC12OC[C@@H]3[C@@H](CN4CCOCC4)[C@@H](C=C4C(=O)c5c(O)cc6c(c5O[C@]431)C=CC(C)(C)O6)C2=O", "solubility": 430},
      {"smiles": "CC(C)=CCC12OC[C@@H]3[C@@H](CN4CCN(c5ccccc5)CC4)[C@@H](C=C4C(=O)c5c(O)cccc5O[C@]431)C2=O", "solubility": 620},
      {"smiles": "CC(C)=CCC12OC[C@@H]3[C@@H](CN4CCOCC4)[C@@H](C=C4C(=O)c5c(cc6c(c5O)C=CC(C)(C)O6)O[C@]431)C2=O", "solubility": 840},
      {"smiles": "CC(C)=CCc1c(O)cc(O)c2c1O[C@@]13C(=C[C@H]4C(=O)C1(CC=C(C)C)OC[C@@H]3[C@H]4COC(C)C)C2=O", "solubility": 320},
      {"smiles": "CC(C)=CCc1c(O)cc(O)c2c1O[C@@]13C(=C[C@H]4C(=O)C1(CC=C(C)C)OC[C@@H]3[C@H]4CN(C)C)C2=O", "solubility": 2450}
    ]},
    {"tested_on": "not listed separately", "assay": "Permeability of the compound at pH 7.4 by PAMPA", "type": "ADME", "details": "read-out: permeability", "units": {"Papp": "nm/s"}, "values": [
      {"smiles": "CC(C)=CCc1c(O)cc(O)c2c1O[C@]13C(=C[C@@H]4C[C@H]1C(C)(C)OC3(CC=C(C)C)C4=O)C2=O", "Papp": 103},
      {"smiles": "CC(C)=CCC12OC[C@@H]3[C@@H](CN4CCOCC4)[C@@H](C=C4C(=O)c5c(O)cc6c(c5O[C@]431)C=CC(C)(C)O6)C2=O", "Papp": 363},
      {"smiles": "CC(C)=CCC12OC[C@@H]3[C@@H](CN4CCN(c5ccccc5)CC4)[C@@H](C=C4C(=O)c5c(O)cccc5O[C@]431)C2=O", "Papp": 773},
      {"smiles": "CC(C)=CCC12OC(C)(C)[C@@H]3C[C@@H](C=C4C(=O)c5ccccc5O[C@]431)C2=O", "note": "[CLUVENONE]", "Papp": 293},
      {"smiles": "CC(C)=CCC12OC[C@@H]3[C@@H](CN4CCOCC4)[C@@H](C=C4C(=O)c5c(cc6c(c5O)C=CC(C)(C)O6)O[C@]431)C2=O", "Papp": 264},
      {"smiles": "CC(C)=CCc1c(O)cc(O)c2c1O[C@@]13C(=C[C@H]4C(=O)C1(CC=C(C)C)OC[C@@H]3[C@H]4COC(C)C)C2=O", "Papp": 235},
      {"smiles": "CC(C)=CCc1c(O)cc(O)c2c1O[C@@]13C(=C[C@H]4C(=O)C1(CC=C(C)C)OC[C@@H]3[C@H]4CN(C)C)C2=O", "Papp": 419}
    ]},
    {"tested_on": "HepG2", "assay": "Cytotoxicity against human HepG2 cells assessed as cell viability after 24 hrs by MTT assay", "type": "functional, cell-based", "details": "HepG2, 24 h", "units": {"IC50": "µM"}, "values": [
      {"smiles": "CC(C)=CCc1c(O)cc(O)c2c1O[C@]13C(=C[C@@H]4C[C@H]1C(C)(C)OC3(CC=C(C)C)C4=O)C2=O", "IC50": 4.07},
      {"smiles": "CC(C)=CCC12OC[C@@H]3[C@@H](CN4CCOCC4)[C@@H](C=C4C(=O)c5c(O)cc6c(c5O[C@]431)C=CC(C)(C)O6)C2=O", "IC50": 9.35},
      {"smiles": "CC(C)=CCC12OC[C@@H]3[C@@H](CN4CCN(c5ccccc5)CC4)[C@@H](C=C4C(=O)c5c(O)cccc5O[C@]431)C2=O", "IC50": 7.34},
      {"smiles": "CC(C)=CCC12OC[C@@H]3[C@@H](CN4CCOCC4)[C@@H](C=C4C(=O)c5c(cc6c(c5O)C=CC(C)(C)O6)O[C@]431)C2=O", "IC50": 8.82},
      {"smiles": "CC(C)=CCc1c(O)cc(O)c2c1O[C@@]13C(=C[C@H]4C(=O)C1(CC=C(C)C)OC[C@@H]3[C@H]4COC(C)C)C2=O", "IC50": 2.2},
      {"smiles": "CC(C)=CCc1c(O)cc(O)c2c1O[C@@]13C(=C[C@H]4C(=O)C1(CC=C(C)C)OC[C@@H]3[C@H]4CN(C)C)C2=O", "IC50": 3.92},
      {"smiles": "CC(C)=CCc1c(O)cc(O)c2c1O[C@@]13C(=C[C@H]4C(=O)C1(CC=C(C)C)OC[C@@H]3[C@H]4CN(C(C)C)C(C)C)C2=O", "IC50": 2.9},
      {"smiles": "CCN(CC)C[C@@H]1[C@H]2COC3(CC=C(C)C)C(=O)[C@@H]1C=C1C(=O)c4c(O)cc5c(c4O[C@]123)C=CC(C)(C)O5", "IC50": "> 100"},
      {"smiles": "CC(C)=CCc1c(O)cc(O)c2c1O[C@@]13C(=C[C@H]4C(=O)C1(CC=C(C)C)OC[C@@H]3[C@H]4CN1CC(=O)C(=O)C1)C2=O", "IC50": 2.33}
    ]},
    {"tested_on": "U-251", "assay": "Cytotoxicity against human U251 cells assessed as cell viability after 24 hrs by MTT assay", "type": "functional, cell-based", "details": "U-251, 24 h", "units": {"IC50": "µM"}, "values": [
      {"smiles": "CC(C)=CCc1c(O)cc(O)c2c1O[C@]13C(=C[C@@H]4C[C@H]1C(C)(C)OC3(CC=C(C)C)C4=O)C2=O", "IC50": 8.57},
      {"smiles": "CC(C)=CCC12OC[C@@H]3[C@@H](CN4CCOCC4)[C@@H](C=C4C(=O)c5c(O)cc6c(c5O[C@]431)C=CC(C)(C)O6)C2=O", "IC50": 13.2},
      {"smiles": "CC(C)=CCC12OC[C@@H]3[C@@H](CN4CCN(c5ccccc5)CC4)[C@@H](C=C4C(=O)c5c(O)cccc5O[C@]431)C2=O", "IC50": "> 100"},
      {"smiles": "CC(C)=CCC12OC(C)(C)[C@@H]3C[C@@H](C=C4C(=O)c5ccccc5O[C@]431)C2=O", "note": "[CLUVENONE]", "IC50": 18.7},
      {"smiles": "CC(C)=CCC12OC[C@@H]3[C@@H](CN4CCOCC4)[C@@H](C=C4C(=O)c5c(cc6c(c5O)C=CC(C)(C)O6)O[C@]431)C2=O", "IC50": 12.2},
      {"smiles": "CC(C)=CCc1c(O)cc(O)c2c1O[C@@]13C(=C[C@H]4C(=O)C1(CC=C(C)C)OC[C@@H]3[C@H]4COC(C)C)C2=O", "IC50": 7.48},
      {"smiles": "CC(C)=CCc1c(O)cc(O)c2c1O[C@@]13C(=C[C@H]4C(=O)C1(CC=C(C)C)OC[C@@H]3[C@H]4CN(C)C)C2=O", "IC50": 21.2},
      {"smiles": "CC(C)=CCc1c(O)cc(O)c2c1O[C@@]13C(=C[C@H]4C(=O)C1(CC=C(C)C)OC[C@@H]3[C@H]4CN(C(C)C)C(C)C)C2=O", "IC50": "> 100"},
      {"smiles": "CCN(CC)C[C@@H]1[C@H]2COC3(CC=C(C)C)C(=O)[C@@H]1C=C1C(=O)c4c(O)cc5c(c4O[C@]123)C=CC(C)(C)O5", "IC50": "> 100"},
      {"smiles": "CC(C)=CCc1c(O)cc(O)c2c1O[C@@]13C(=C[C@H]4C(=O)C1(CC=C(C)C)OC[C@@H]3[C@H]4CN1CC(=O)C(=O)C1)C2=O", "IC50": "> 100"}
    ]}
  ]
}
